Results reported in ChEMBL document CHEMBL3421553, “Design, synthesis, and biological evaluation of benzoselenazole-stilbene hybrids as multi-target-directed anti-cancer agents” (Eur J Med Chem, 2015).
Active and inactive are the calls of the source. The calls are words filed in the database; no cut-off is given here.

Experiments:
[1] = Antiproliferative activity against human Bel7402 cells assessed as cell viability after 48 hrs by MTT assay; format: functional, cell-based; details: Bel-7402, 48 h
A549 = assay: Antiproliferative activity against human A549 cells assessed as cell viability after 48 hrs by MTT assay; format: functional, cell-based; details: A549, 48 h
HeLa = assay: Antiproliferative activity against human HeLa cells assessed as cell viability after 48 hrs by MTT assay; format: functional, cell-based
[2] = Inhibition of rat liver TrxR assessed as increase in absorbance by DTNB assay
MCF7 = assay: Antiproliferative activity against human MCF7 cells assessed as cell viability after 48 hrs by MTT assay; format: functional, cell-based; details: MCF7, 48 h
[3] = Aqueous solubility of the compound in phosphate buffer at pH 7.4; format: physicochemical
Rattus norvegicus = species: Rattus norvegicus; assay: Inhibition of rat liver TrxR assessed as increase in absorbance at 10 uM by DTNB assay
Bel-7402 [4] = assay: Induction of apoptosis in human Bel7402 cells assessed as live cells at 50 uM after 48 hrs by flow cytometry (reference value: 98.65%); format: functional
Bel-7402 [5] = assay: Induction of apoptosis in human Bel7402 cells assessed as detection error cells at 50 uM after 48 hrs by flow cytometry (reference value: 0.43%); format: functional
Bel-7402 [6] = assay: Induction of apoptosis in human Bel7402 cells assessed as apoptotic cells at 50 uM after 48 hrs by flow cytometry (reference value: 0.73%); format: functional
Bel-7402 [7] = assay: Induction of apoptosis in human Bel7402 cells assessed as necrotic cells at 50 uM after 48 hrs by flow cytometry (reference value: 0.19%); format: functional
[8] = Cell cycle arrest in human Bel7402 cells assessed as cells accumulation at G2/M phase at 50 uM after 48 hrs by flow cytometry (reference value: 16.61%); format: functional, cell-based; details: Bel-7402
[9] = Cell cycle arrest in human Bel7402 cells assessed as cells accumulation at S phase at 50 uM after 48 hrs by flow cytometry (reference value: 13.99%); format: functional, cell-based; details: Bel-7402
[10] = Cell cycle arrest in human Bel7402 cells assessed as cells accumulation at G1 phase at 50 uM after 48 hrs by flow cytometry (reference value: 62.60%); format: functional, cell-based; details: Bel-7402
[11] = Cell cycle arrest in human Bel7402 cells assessed as cells accumulation at Sub-G1 phase at 50 uM after 48 hrs by flow cytometry (reference value: 1.47%); format: functional, cell-based; details: Bel-7402

| Structure (SMILES) | IC50 [1] [µM] | IC50 (A549) [µM] | IC50 (HeLa) [µM] | IC50 [2] [µM] | IC50 (MCF7) [µM] | solubility [3] [µM] | inhibition (Rattus norvegicus) | Activity (Bel-7402 [4]) [%] | Activity (Bel-7402 [5]) [%] | Activity (Bel-7402 [6]) [%] | Activity (Bel-7402 [7]) [%] | Activity [8] [%] | Activity [9] [%] | Activity [10] [%] | Activity [11] [%] |
| --- | --- | --- | --- | --- | --- | --- | --- | --- | --- | --- | --- | --- | --- | --- | --- |
| COc1cc(/C=C/c2ccc(-n3[se]c4ccccc4c3=O)cc2)cc(OC)c1OC | 1.11 | 3.11 | 5.67 | 5.78 | 3.97 | – | – | – | – | – | – | – | – | – | – |
| COc1ccc(/C=C/c2ccc(N3Cc4ccccc4C3=O)cc2)cc1OC | > 10 | > 10 | > 10 | – | > 10 | < 10 | inactive | – | – | – | – | – | – | – | – |
| COc1cc(/C=C/c2ccc(-n3[se]c4cc(F)ccc4c3=O)cc2)cc(OC)c1 | 0.99 | 1.22 | 0.64 | – | 0.51 | < 10 | 36.6% | – | – | – | – | – | – | – | – |
| O=c1c2ccccc2[se]n1-c1ccccc1 [EBSELEN] | 68.2 | > 100 | 78.5 | 8.54 | > 100 | – | – | 90.8 | 0.56 | 7.94 | 0.72 | 21.2 | 11.2 | 58.7 | 3.32 |
| COc1cc(/C=C\c2ccc(-n3[se]c4ccccc4c3=O)cc2)cc(OC)c1 | 36.1 | 43 | 28.4 | 9.62 | 56.3 | – | – | – | – | – | – | – | – | – | – |
| COc1cc(/C=C/c2ccc(-n3[se]c4ccc(Cl)cc4c3=O)cc2)cc(OC)c1 | – | – | – | – | – | < 50 | 31.2% | – | – | – | – | – | – | – | – |
| COc1ccc(/C=C/c2ccc(-n3[se]c4ccc(Cl)cc4c3=O)cc2)cc1OC | 6.13 | 6.95 | 12 | – | 16.9 | < 20 | 38.4% | – | – | – | – | – | – | – | – |
